Results from patent US8952024B2, “Herbicidal pyrimidone derivatives” (E I du Pont de Nemours and Company, priority 2009, dated 2015).

Experiments:
Format in all cases: in vivo
[1] = test system: barnyardgrass (Echinochloa crus-galli); assay: Test A pre-/postemergence plant response
In short: (§1)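 Visually rated 0–100 injury (100 = complete control) versus untreated plants, ~10 days in greenhouse. Application pre- (soil spray, loam/sand) and postemergence (2–10 cm, 1–2 leaf stage), same timepoint.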

corn (Zea mays) = assay: Test A pre-/postemergence plant response
In short: as §1

[2] = test system: giant foxtail (Setaria faberii); assay: Test A pre-/postemergence plant response
In short: as §1

[3] = test system: large crabgrass (Digitaria sanguinalis); assay: Test A pre-/postemergence plant response
In short: as §1

[4] = test system: morningglory (Ipomoea spp.); assay: Test A pre-/postemergence plant response
In short: as §1

[5] = test system: pigweed (Amaranthus retroflexus); assay: Test A pre-/postemergence plant response
In short: as §1

[6] = test system: velvetleaf (Abutilon theophrasti); assay: Test A pre-/postemergence plant response
In short: as §1

[7] = test system: wheat (Triticum aestivum); assay: Test A pre-/postemergence plant response
In short: as §1

[8] = test system: barnyardgrass (Echinochloa crus-galli); assay: Test B flooded paddy test; conditions: for Plant response rating, Flood, Barnyardgrass: 250 g ai/ha, flooded paddy test, visual rating on 0 to 100 scale (0 no effect, 100 complete control) after 13 to 15 days; for Plant response rating, Barnyardgrass: Flood (flooded paddy test), 13 to 15 days; for Barnyardgrass plant response rating: Flood, 31 g ai/ha, scale 0 to 100 (0 no effect, 100 complete control)
In short: (§2)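 Post-flood paddy application: compounds are introduced into water 3 cm deep over the soil, reaching plants at the 2-leaf stage. The water level is maintained, and after 13–15 days under greenhouse conditions, response is judged by eye relative to controls, where 100 means complete control.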

[9] = test system: ducksalad (Heteranthera limosa); assay: Test B flooded paddy test; conditions: for Plant response rating, Flood, Ducksalad: 250 g ai/ha, flooded paddy test, visual rating on 0 to 100 scale (0 no effect, 100 complete control) after 13 to 15 days; for Plant response rating, Ducksalad: Flood (flooded paddy test), 13 to 15 days; for Ducksalad plant response rating: Flood, 31 g ai/ha, scale 0 to 100 (0 no effect, 100 complete control)
In short: as §2

rice (Oryza sativa) = assay: Test B flooded paddy test; conditions: for Plant response rating, Flood, Rice: 250 g ai/ha, flooded paddy test, visual rating on 0 to 100 scale (0 no effect, 100 complete control) after 13 to 15 days; for Plant response rating, Rice: Flood (flooded paddy test), 13 to 15 days; for Rice plant response rating: Flood, 31 g ai/ha, scale 0 to 100 (0 no effect, 100 complete control)
In short: as §2

[10] = test system: umbrella sedge (Cyperus difformis); assay: Test B flooded paddy test; conditions: for Plant response rating, Flood, Sedge, Umbrella: 250 g ai/ha, flooded paddy test, visual rating on 0 to 100 scale (0 no effect, 100 complete control) after 13 to 15 days; for Plant response rating, Sedge, Umbrella: Flood (flooded paddy test), 13 to 15 days; for Sedge, Umbrella plant response rating: Flood, 31 g ai/ha, scale 0 to 100 (0 no effect, 100 complete control)
In short: as §2

[11] = Postemergence, 125 g ai/ha, 0 to 100 scale where 0 is no effect and 100 is complete control
[12] = Postemergence, 500 g ai/ha, visual injury, 0 to 100 scale (0 no effect, 100 complete control), approx. ten days
[13] = Preemergence, 125 g ai/ha, 0 to 100 scale, 0 = no effect, 100 = complete control
[14] = Preemergence, 500 g ai/ha, 0 to 100 scale, 0 = no effect, 100 = complete control
[15] = 62 g ai/ha, scale of 0 to 100 where 0 is no effect and 100 is complete control
[16] = 125 g ai/ha, scale 0 to 100, 0 is no effect, 100 is complete control
[17] = Postemergence, 500 g ai/ha, 0 to 100 scale, 0 = no effect, 100 = complete control, approx. ten days
[18] = Preemergence, 500 g ai/ha, visual injury, 0 to 100 scale (0 no effect, 100 complete control), approx. ten days

With `CCCn1c(-c2cccc(Cl)c2)ncc(C(=O)C2=C(O)CCCC2=O)c1=O` [Compound 190] the “Plant response rating, Barnyardgrass” value [1, 11] was 90, the “Barnyardgrass plant response rating” value [1, 12] was 100 and the “Plant response rating, Barnyardgrass” value [1, 13] was 10. For the same molecule, the “Plant response rating, Barnyardgrass” value [1, 14] was 100, the “Plant response rating, Corn” value (corn (Zea mays); [11]) was 0 and the “Corn plant response rating” value (corn (Zea mays); [12]) was 0. The “Plant response rating, Corn” value (corn (Zea mays); [13]) was 0, the “Plant response rating, Corn” value (corn (Zea mays); [14]) was 0 and the “Plant response rating, Foxtail, Giant” value [2, 11] was 80. For the same molecule, the “Foxtail, Giant plant response rating” value [2, 12] was 90, the “Plant response rating, Foxtail, Giant” value [2, 13] was 60 and the “Plant response rating, Foxtail, Giant” value [2, 14] was 90. The “Plant response rating, Crabgrass, Large” value [3, 11] was 90, the “Crabgrass, Large plant response rating” value [3, 12] was 90 and the “Plant response rating, Crabgrass, Large” value [3, 13] was 60. For the same molecule, the “Plant response rating, Crabgrass, Large” value [3, 14] was 90, the “Plant response rating, Morningglory” value [4, 11] was 100 and the “Morningglory plant response rating” value [4, 12] was 100. For the same molecule, the “Plant response rating, Morningglory” value [4, 14] was 70, the “Plant response rating, Pigweed” value [5, 11] was 100 and the “Pigweed plant response rating” value [5, 12] was 100. The “Plant response rating, Pigweed” value [5, 13] was 70, the “Plant response rating, Pigweed” value [5, 14] was 100 and the “Plant response rating, Velvetleaf” value [6, 11] was 100. The “Velvetleaf plant response rating” value [6, 12] was 100, the “Plant response rating, Velvetleaf” value [6, 13] was 70 and the “Plant response rating, Velvetleaf” value [6, 14] was 100. The “Plant response rating, Wheat” value [7, 11] was 0, the “Wheat plant response rating” value [7, 12] was 0 and the “Plant response rating, Wheat” value [7, 13] was 0. For the same molecule, the “Plant response rating, Wheat” value [7, 14] was 0, the “Plant response rating, Flood, Barnyardgrass” value [8] was 30 and the “Plant response rating, Barnyardgrass” value [8, 15] was 0. For the same molecule, the “Plant response rating, Barnyardgrass” value [8, 16] was 20, the “Barnyardgrass plant response rating” value [8] was 0 and the “Plant response rating, Flood, Ducksalad” value [9] was 100. For the same molecule, the “Plant response rating, Ducksalad” value [9, 15] was 20, the “Plant response rating, Ducksalad” value [9, 16] was 40 and the “Ducksalad plant response rating” value [9] was 20. For the same molecule, the “Plant response rating, Flood, Rice” value (rice (Oryza sativa)) was 15, the “Plant response rating, Rice” value (rice (Oryza sativa); [15]) was 15 and the “Plant response rating, Rice” value (rice (Oryza sativa); [16]) was 15. For the same molecule, the “Rice plant response rating” value (rice (Oryza sativa)) was 15, the “Plant response rating, Flood, Sedge, Umbrella” value [10] was 95 and the “Plant response rating, Sedge, Umbrella” value [10, 15] was 0. For the same molecule, the “Plant response rating, Sedge, Umbrella” value [10, 16] was 30 and the “Sedge, Umbrella plant response rating” value [10] was 0.

For `COCCn1c(-c2cccc(Cl)c2)ncc(C(=O)C2=C(O)CCCC2=O)c1=O` [Compound 147], the “Plant response rating, Barnyardgrass” value [1, 11] was 80, the “Plant response rating, Barnyardgrass” value [1, 17] was 90 and the “Plant response rating, Barnyardgrass” value [1, 13] was 70. For the same molecule, the “Plant response rating, Barnyardgrass” value [1, 18] was 100, the “Plant response rating, Corn” value (corn (Zea mays); [11]) was 20 and the “Plant response rating, Corn” value (corn (Zea mays); [17]) was 30. The “Plant response rating, Corn” value (corn (Zea mays); [13]) was 0, the “Plant response rating, Corn” value (corn (Zea mays); [18]) was 0 and the “Plant response rating, Foxtail, Giant” value [2, 11] was 70. For the same molecule, the “Plant response rating, Foxtail, Giant” value [2, 17] was 80, the “Plant response rating, Foxtail, Giant” value [2, 13] was 70 and the “Plant response rating, Foxtail, Giant” value [2, 18] was 90. The “Plant response rating, Crabgrass, Large” value [3, 11] was 80, the “Plant response rating, Crabgrass, Large” value [3, 17] was 90 and the “Plant response rating, Crabgrass, Large” value [3, 13] was 100. For the same molecule, the “Plant response rating, Crabgrass, Large” value [3, 18] was 100, the “Plant response rating, Morningglory” value [4, 11] was 100 and the “Plant response rating, Morningglory” value [4, 17] was 100. For the same molecule, the “Plant response rating, Morningglory” value [4, 13] was 40, the “Plant response rating, Morningglory” value [4, 18] was 90 and the “Plant response rating, Pigweed” value [5, 11] was 100. The “Plant response rating, Pigweed” value [5, 17] was 100, the “Plant response rating, Pigweed” value [5, 13] was 90 and the “Plant response rating, Pigweed” value [5, 18] was 100. For the same molecule, the “Plant response rating, Velvetleaf” value [6, 11] was 100, the “Plant response rating, Velvetleaf” value [6, 17] was 100 and the “Plant response rating, Velvetleaf” value [6, 13] was 80. For the same molecule, the “Plant response rating, Velvetleaf” value [6, 14] was 100, the “Plant response rating, Wheat” value [7, 11] was 20 and the “Plant response rating, Wheat” value [7, 17] was 60. For the same molecule, the “Plant response rating, Wheat” value [7, 13] was 0, the “Plant response rating, Wheat” value [7, 14] was 20 and the “Plant response rating, Flood, Barnyardgrass” value [8] was 75. The “Plant response rating, Barnyardgrass” value [8, 15] was 10, the “Plant response rating, Barnyardgrass” value [8, 16] was 45 and the “Barnyardgrass plant response rating” value [8] was 0. The “Plant response rating, Flood, Ducksalad” value [9] was 100, the “Plant response rating, Ducksalad” value [9, 15] was 60 and the “Plant response rating, Ducksalad” value [9, 16] was 80. For the same molecule, the “Ducksalad plant response rating” value [9] was 60, the “Plant response rating, Flood, Rice” value (rice (Oryza sativa)) was 15 and the “Plant response rating, Rice” value (rice (Oryza sativa); [15]) was 0. For the same molecule, the “Plant response rating, Rice” value (rice (Oryza sativa); [16]) was 10, the “Rice plant response rating” value (rice (Oryza sativa)) was 0 and the “Plant response rating, Flood, Sedge, Umbrella” value [10] was 80. The “Plant response rating, Sedge, Umbrella” value [10, 15] was 40, the “Plant response rating, Sedge, Umbrella” value [10, 16] was 40 and the “Sedge, Umbrella plant response rating” value [10] was 0.

In the case of `CCCCn1c(-c2ccccc2)ncc(C(=O)C2=C(O)CCCC2=O)c1=O` [Compound 86], the “Plant response rating, Barnyardgrass” value [1, 11] is reported as 90, the “Plant response rating, Barnyardgrass” value [1, 17] is reported as 90 and the “Plant response rating, Barnyardgrass” value [1, 13] is reported as 20. For the same molecule, the “Plant response rating, Barnyardgrass” value [1, 18] was 100, the “Plant response rating, Corn” value (corn (Zea mays); [11]) was 0 and the “Plant response rating, Corn” value (corn (Zea mays); [17]) was 50. For the same molecule, the “Plant response rating, Foxtail, Giant” value [2, 11] was 80, the “Plant response rating, Foxtail, Giant” value [2, 17] was 90 and the “Plant response rating, Foxtail, Giant” value [2, 18] was 100. The “Plant response rating, Crabgrass, Large” value [3, 11] was 90, the “Plant response rating, Crabgrass, Large” value [3, 17] was 90 and the “Plant response rating, Morningglory” value [4, 11] was 90. The “Plant response rating, Morningglory” value [4, 17] was 90, the “Plant response rating, Morningglory” value [4, 13] was 0 and the “Plant response rating, Morningglory” value [4, 18] was 60. The “Plant response rating, Pigweed” value [5, 11] was 100, the “Plant response rating, Pigweed” value [5, 17] was 100 and the “Plant response rating, Velvetleaf” value [6, 11] was 100. For the same molecule, the “Plant response rating, Velvetleaf” value [6, 17] was 100, the “Plant response rating, Velvetleaf” value [6, 18] was 100 and the “Plant response rating, Wheat” value [7, 11] was 0. The “Plant response rating, Wheat” value [7, 17] was 50, the “Plant response rating, Flood, Barnyardgrass” value [8] was 60 and the “Plant response rating, Barnyardgrass” value [8, 15] was 40. For the same molecule, the “Plant response rating, Barnyardgrass” value [8, 16] was 50, the “Barnyardgrass plant response rating” value [8] was 30 and the “Plant response rating, Flood, Ducksalad” value [9] was 65. For the same molecule, the “Plant response rating, Ducksalad” value [9, 15] was 55, the “Plant response rating, Ducksalad” value [9, 16] was 55 and the “Ducksalad plant response rating” value [9] was 0. The “Plant response rating, Flood, Rice” value (rice (Oryza sativa)) was 40, the “Plant response rating, Rice” value (rice (Oryza sativa); [15]) was 0 and the “Plant response rating, Rice” value (rice (Oryza sativa); [16]) was 20. The “Rice plant response rating” value (rice (Oryza sativa)) was 0, the “Plant response rating, Flood, Sedge, Umbrella” value [10] was 85 and the “Plant response rating, Sedge, Umbrella” value [10, 15] was 30. The “Plant response rating, Sedge, Umbrella” value [10, 16] was 70 and the “Sedge, Umbrella plant response rating” value [10] was 20.
